According to patent US8884101B2, “Method of gene introduction into Triticum plant using Agrobacterium, and a method of producing transformed Triticum plant” (priority 2009, dated 2014):

System: immature embryos of bread wheat (variety: Fielder)
Assay: GUS gene expression in wheat immature embryos; effect of adding plant hormone to coculture medium (Example 9)
Assay type: cell-based, bread wheat (Triticum aestivum)
Details: 5 days resting culture; for degree of GUS gene expression relative to coculture medium not containing plant hormones (FIG. 5): 0.5 μM in coculture medium, 10 immature embryos per group; for degree of GUS gene expression relative to coculture medium not containing plant hormones (FIG. 6) / degree of GUS gene expression relative to coculture medium not containing plant hormones (FIG. 4): 5 μM in coculture medium; for degree of GUS gene expression relative to coculture medium not containing plant hormones (FIG. 6): 18 or 19 immature embryos per group; for degree of GUS gene expression relative to coculture medium not containing plant hormones (FIG. 4): 16 or 17 immature embryos per group
Description: Bread wheat (variety: Fielder) was cultivated in a greenhouse equipped with an air conditioner, and the immature embryos (size: 1.5 to 3.0 mm) of the bread wheat were aseptically collected on the 14th day after flowering and were washed once with an Inf liquid medium. Pretreatment (centrifugation at 15000 rpm for 10 min) was performed to enhance the efficiency of gene introduction in an Inf liquid medium. Agrobacterium strain EHA101 (pIG121Hm) was suspended at about 1.0×10^9 cfu/mL in an Inf liquid medium containing 100 μM acetosyringone to prepare an inoculation source. The inoculation source was added to the immature embryos, and the mixture was stirred for 30 sec, followed by leaving to stand at room temperature for 5 min. The immature embryos inoculated with Agrobacterium were placed onto a Co-Cul coculture medium containing 100 μM acetosyringone, 5 μM AgNO3, and 5 μM CuSO4 and also containing 5 μM kinetin or 4PU; 0.5 μM 2,4-D, dicamba, or picloram; or 5 μM 2,4-D, dicamba, or picloram in such a manner that the scutellum faced upward, and were cocultured at 23° C. in the dark. As a control, a Co-Cul coculture medium not containing any plant hormone was used.
On the 2nd day from the beginning of the coculture, the radicles, germs, and embryonic axes were excised using a scalpel and tweezers. The immature embryos were placed onto a resting medium (the composition is the same as that described in Example 1), followed by cultivation at 25° C. in the dark for 5 days. Subsequently, 10 to 19 immature embryos were collected from each group and were immersed in a 0.1 M phosphate buffer (pH 6.8) containing 0.1% Triton X-100 at 37° C. for 1 hr. The phosphate buffer was removed, and a phosphate buffer containing 1.0 mM 5-bromo-4-chloro-3-indolyl-β-D-glucuronic acid (X-gluc) and 20% methanol was added thereto. After treatment at 37° C. for 24 hr, the immature embryos in each group were evaluated for expression of the GUS gene in six grades: 4 (expressed in 75% or more of scutellum), 3 (expressed in 50% to 74% of scutellum), 2 (expressed in 25% to 49% of scutellum), 1 (expressed in 5% to 24% of scutellum), 0.5 (expressed in 1% to 4% of scutellum), and 0 (no expression).
A part of the immature embryos in each test group was harvested on the 5th day of the resting culture, and the GUS gene was expressed. The vertical axis in each of FIGS. 4, 5, and 6 represents the average of GUS gene expression by each immature embryo evaluated in six grades: 4 (expressed in 75% or more of scutellum), 3 (expressed in 50% to 74% of scutellum), 2 (expressed in 25% to 49% of scutellum), 1 (expressed in 5% to 24% of scutellum), 0.5 (expressed in 1% to 4% of scutellum), and 0 (no expression), that is, efficiency of gene introduction shown by expression of the GUS gene.

| SMILES | degree of GUS gene expression relative to coculture medium not containing plant hormones (FIG. 5) | degree of GUS gene expression relative to coculture medium not containing plant hormones (FIG. 6) | degree of GUS gene expression relative to coculture medium not containing plant hormones (FIG. 4) |
| --- | --- | --- | --- |
| O=C(O)COc1ccc(Cl)cc1Cl [2,4-D, 2,4-dichlorophenoxyacetic acid] | equivalent to or slightly lower | slightly lower | – |
| O=C(Nc1ccccc1)Nc1ccncc1 [4PU] | – | – | slightly lower |
| COc1c(Cl)ccc(Cl)c1C(=O)O [dicamba] | equivalent to or slightly lower | slightly lower | – |
| c1coc(CNc2ncnc3[nH]cnc23)c1 [kinetin] | – | – | slightly lower |
| Nc1c(Cl)c(Cl)nc(C(=O)O)c1Cl [picloram] | equivalent to or slightly lower | slightly lower | – |
